target: SARS2 M^pro (Severe acute respiratory syndrome coronavirus 2, UniProt P0DTD1, P3395H); type: biochemical, SARS-CoV-2

Q: How did the “% inhibition (20 µM) biochemical” value turn out when COc1ccc(C(=O)NNC(=O)Cc2ccc(-c3ccccc3)cc2)cc1 [MWAC-0001846, COc1ccc(cc1)C(=O)NNC(=O)Cc2ccc(cc2)c3ccccc3] was run?
A: The value was 0.595%.

Q: Which “% inhibition (20 µM) biochemical” value does the source give for COc1ccc(C2=NN3C(C2)c2ccccc2OC3c2ccc(C(C)(C)C)cc2)cc1 (stereo not shown) [MWAC-0001719, COc1ccc(cc1)C2=NN3C(C2)c4ccccc4OC3c5ccc(cc5)C(C)(C)C] here?
A: The value was 5%.

Q: For CC(C)(C)N1C(=O)c2ccc(C(=O)Nc3cccc(O)c3)cc2C1=O [MWAC-0001722, CC(C)(C)N1C(=O)c2ccc(cc2C1=O)C(=O)Nc3cccc(O)c3], which “% inhibition (20 µM) biochemical” value is on record?
A: The value was 5.66%.

Q: O=C(Nc1nc2ccccc2[nH]1)c1ccc(Br)o1 [MWAC-0001805, Brc1oc(cc1)C(=O)Nc2nc3ccccc3[nH]2] was tested. Which “% inhibition (20 µM) biochemical” value did it give?
A: The value was 9%.

Q: For CC(=O)Nc1cccc(-c2nc3cc(Cl)ccc3o2)c1 [MWAC-0001758, CC(=O)Nc1cccc(c1)c2oc3ccc(Cl)cc3n2], which “% inhibition (20 µM) biochemical” value is on record?
A: Its value is 14%.

Q: Which “% inhibition (20 µM) biochemical” value does the source give for Fc1cccc(/N=c2\oc3ccccc3cc2-c2nc3ccccc3[nH]2)c1 [MWAC-0001716, Fc1cccc(c1)\N=C\2/Oc3ccccc3C=C2c4nc5ccccc5[nH]4] here?
A: The value was 0%.

Q: How did the “% inhibition (20 µM) biochemical” value turn out when COc1ccccc1N1CCN(C(=O)CCl)CC1 [MWAC-0001823, COc1ccccc1N2CCN(CC2)C(=O)CCl] was run?
A: The value was 98%.

Q: How did the “% inhibition (20 µM) biochemical” value turn out when CCN(CC)c1ccc(/C=N/n2c(S)nnc2-c2cccnc2)c(O)c1 [MWAC-0001796, CCN(CC)c1ccc(\C=N\n2c(S)nnc2c3cccnc3)c(O)c1] was run?
A: The value was 9%.

Q: For Cc1cccc(NC(=O)COc2ccc(Br)cc2/C=N/O)c1 [MWAC-0001791, Cc1cccc(NC(=O)COc2ccc(Br)cc2\C=N\O)c1], which “% inhibition (20 µM) biochemical” value is on record?
A: The value was 0.745%.

Q: CCc1cccc2c(/C=C3\C(=O)Nc4ccccc43)c[nH]c12 [MWAC-0001851, CCc1cccc2c(\C=C\3/C(=O)Nc4ccccc34)c[nH]c12] was tested. Which “% inhibition (20 µM) biochemical” value did it give?
A: Its value is 2.36%.

Q: Which “% inhibition (20 µM) biochemical” value does the source give for CC(=O)Nc1ccc(OS(=O)(=O)c2ccc(Cl)c3ccccc23)cc1 [MWAC-0001803, CC(=O)Nc1ccc(OS(=O)(=O)c2ccc(Cl)c3ccccc23)cc1] here?
A: Its value is 1.42%.

Q: For Cc1cc(C(=O)COn2nnc3ccc(Cl)cc32)c(C)n1-c1ccc2c(c1)OCO2 [MWAC-0001837, Cc1cc(C(=O)COn2nnc3ccc(Cl)cc23)c(C)n1c4ccc5OCOc5c4], which “% inhibition (20 µM) biochemical” value is on record?
A: The value was 26%.

Q: COc1ccc(C(CNC(=O)CCl)N2CCCCC2)cc1 (stereo not shown) [MWAC-0001849, COc1ccc(cc1)C(CNC(=O)CCl)N2CCCCC2] was tested. Which “% inhibition (20 µM) biochemical” value did it give?
A: The value was 33%.

Q: COc1ccc2c(=O)cc(-c3ccc4c(c3)OCCO4)oc2c1 [MWAC-0001860, COc1ccc2C(=O)C=C(Oc2c1)c3ccc4OCCOc4c3] was tested. Which “% inhibition (20 µM) biochemical” value did it give?
A: Its value is 100%.

Q: With CCCCOC(=O)c1c(C)oc2ccc(NS(=O)(=O)c3ccc(OC)cc3)cc12 [MWAC-0001742, CCCCOC(=O)c1c(C)oc2ccc(NS(=O)(=O)c3ccc(OC)cc3)cc12] as the compound, how does the “% inhibition (20 µM) biochemical” value read?
A: The value was 11%.

Q: Cc1ccccc1C(=O)Nc1ccc(Br)cc1 [MWAC-0001804, Cc1ccccc1C(=O)Nc2ccc(Br)cc2] was tested. Which “% inhibition (20 µM) biochemical” value did it give?
A: The value was 2.44%.

Q: Which “% inhibition (20 µM) biochemical” value does the source give for O=C(CC1(O)C(=O)Nc2ccc(I)cc21)c1cccs1 (stereo not shown) [MWAC-0001763, OC1(CC(=O)c2cccs2)C(=O)Nc3ccc(I)cc13] here?
A: The value was 6.56%.

Q: For Cc1ccc2nc(N3C(=O)C(O)=C(C(=O)c4ccco4)C3c3ccco3)sc2c1 (stereo not shown) [MWAC-0001821, Cc1ccc2nc(sc2c1)N3C(C(=C(O)C3=O)C(=O)c4occc4)c5occc5], which “% inhibition (20 µM) biochemical” value is on record?
A: Its value is 16%.

Q: For Cc1cc(C(=O)CCl)c(C)n1CCc1cccs1 [MWAC-0001825, Cc1cc(C(=O)CCl)c(C)n1CCc2cccs2], which “% inhibition (20 µM) biochemical” value is on record?
A: Its value is 56%.

Q: COC(=O)c1ccc(C(=O)Nc2ccccc2N)cc1 [MWAC-0001884, COC(=O)c1ccc(cc1)C(=O)Nc2ccccc2N] was tested. Which “% inhibition (20 µM) biochemical” value did it give?
A: The value was 0%.

Q: With COc1cccc(-c2cc(C(=O)N3CCCCC3C)no2)c1 (stereo not shown) [MWAC-0001739, COc1cccc(c1)c2onc(c2)C(=O)N3CCCCC3C] as the compound, how does the “% inhibition (20 µM) biochemical” value read?
A: Its value is 2.35%.

Q: CC(C)c1cc(C(=O)Nc2ccc(Br)cc2)no1 [MWAC-0001748, CC(C)c1onc(c1)C(=O)Nc2ccc(Br)cc2] was tested. Which “% inhibition (20 µM) biochemical” value did it give?
A: The value was 6%.

— paper PMC11550483 (2024)
